Source: patent US8772348B2, “Materials and methods for pest control” (priority 2009, dated 2014)
Like-named read-outs stand apart in the source and are kept apart here.

Legend:
[1] = tested on: honey bees, Apis mellifera; assay: Olfactory response assay in MEDUSA olfactometer, honey bee behaviors; format: in vivo; settings: 0.25 mg semiochemical on perfumery strips; F7.72=0.705, p=0.67; data not shown
[2] = tested on: Susceptible Musca domestica; settings: for % mortality on various days following treatment: formulation on filter paper at LC99-based concentration of each compound
Procedure: Briefly, after Musca domestica is exposed to formulations for 24 hours at the LC99 concentration specific for each compound, each set of flies is transferred into a separate glass jar, and held for another 24 hours when mortality is scored. The mortality rate is measured on multiple days with new sets of flies up to 14 days (Day 1 starts at 24 hours after the transfer). The mortality rate is determined using the same procedures as is illustrated in Example 2.
Concentrations were generated from technical-based LC99 values obtained following a 24 h-exposure period on filter paper. Paper was treated on day 0 and was held until exposure on post-treatment day. Control contained formulation ingredients without semiochemicals.

[3] = tested on: Stomoxys calcitrans
Procedure: Briefly, each fly strain is divided into eight sets: three sets as the experiment, four sets as the positive control, and one set as the negative control. Flies are assayed on unpainted plywood panel boards that have been previously exposed to natural summer weather conditions for at least 10 days. […] The positive control set is treated with permethrin, geranyl acetone, rosalva or citronellol. The negative control set is treated with water. The formulation is applied at a uniform rate of 7.5 ml per 225 cm^2, sufficient to cover the entire panel without dripping. Subsequently, the treated panel boards are dried for about an hour.
In each set, 20 adult flies are placed onto the panel boards. Flies are secured with wooden embroidery hoops, covered with a coarse mesh screen cloth previously sprayed with the respective formulation. After 4 hours, flies are transferred into a clean jar. The mortality rate is measured 24 hours after the transfer, and is determined using the same procedures as are illustrated in Example 2.
Plywood panels (225 cm^2) were treated with chemicals at a rate of 1.67 mgcm^−2. Panels were treated on day 0 and held until exposure on post-treatment day. Mosquitoes were exposed to chemicals for 2 h, and mortality rate was assessed 24 h after initial exposure. Control contained formulation ingredients without semiochemicals.

[4] = tested on: Aedes aegypti; settings: EC formulation on military fabric
Procedure: A commercially-available permethrin 57 g L^−1 EC (Ectiban EC 57; Universal Cooperatives, Minneapolis, Minn.) was included for comparison. Except rosalva, the 50% EC semiochemical formulations were generated by combining 500 mL AI, 430 mL canola oil (Publix, Lakeland, Fla.), 10 mL xylene, 50 mL Triton X-100 (Acros Organics Nev., Fair Lawn, N.J.) and 10 mL Agsolex-8 (International Specialty Products, Wayne, N.J.). The rosalva formulation contained all of the above-mentioned ingredients, with canola oil concentration reduced to 400 mL L^−1, Triton X-100 concentration increased to 75 mL L^−1, and 5 mL L^−1 Antifoam B silicone emulsion (Mallinckrodt Baker, Phillipsburg, N.Y.) included.
Briefly, a piece of 10×10 cm^2 fabric (TenCate Defender™) is impregnated with 2 ml of serially diluted 20-emulsifiable concentrate or 50-emulsifiable concentrate formulations, respectively, and subsequently dried for about an hour. Also, six-to-ten-day-old, never blood-fed, adult female Ae. aegypti mosquitoes are obtained. The mosquitoes are divided into seven sets: three sets as the experiment, three sets as the positive control, and one set as the negative control. Each set consists of 20 mosquitoes. […] The positive control set is exposed to fabric pieces treated with geranyl acetone, rosalva or citronellol. The negative control set is exposed to fabric pieces treated with acetone solution. Throughout the exposure periods, each set is provided with 10% sucrose solution and sufficient air circulation. Ataxic mosquitoes are considered dead. The mortality rate and the LC values are determined using the same procedures as are illustrated in Example 2.

[5] = tested on: Aedes aegypti; settings: for % mortality on various days following treatment: formulation on military fabric at LC99-based concentration, 2 h exposure, mortality 24 h after initial exposure
Procedure: Briefly, after mosquitoes are exposed to formulations for 2 hours at a concentration of LC99, each set is transferred into a separate glass jar, and held for another 24 hours. The mortality rate is measured with new mosquitoes on post-treatment days 2, 3, 5, 8 and 14 (Day 1 starts at 24 hours after the transfer), and is determined using the same procedures as are illustrated in Example 2.
Concentrations were generated from technical-based LC99 values obtained from a 2 h exposure period on military fabric. Fabric was treated on day 0 and was held until exposure on post-treatment day. Mosquitoes were exposed for 2 h, and mortality rate was assessed 24 h after initial exposure. Control contained formulation ingredients without semiochemicals.

[6] = tested on: Field-collected Musca domestica
Procedure: Briefly, one Musca domestica strain is collected from the University of Florida dairy unit in Alachua County, Florida, U.S.A. (“the Alachua strain”). The other Musca domestica strain is collected from a dairy farm in Gilchrist County, Florida, U.S.A. (“the Gilchrist strain”). Both strains are colonized adults, and are subsequently reared at 27° C. in the laboratory of the Entomology and Nematology Department, University of Florida.
The positive control is exposed to serial dilutions of permethrin. The negative control is not exposed to any chemical compound. 1 mL of insecticide was dissolved in acetone (concentrations between 0.5 and 20 mg mL^−1) in a 60 mL glass jar having a 67.86 cm^2 inside surface area (Wheaton, Millville, N.J.). Jars were allowed to dry for 1 h prior to fly introduction. Flies were held in jars for 2, 4 and 24 h, and fly mortality rate was scored at that time. Sugar water (10%) was provided in all assays, unless stated otherwise. The mortality rate is measured after a 2-hour, 4-hour, and 24-hour period. Ataxic flies are considered dead. The mortality rate and the LC values are determined using the same procedures as is illustrated in Example 2.

[7] = Alachua strain, 2 h constant exposure
[8] = Alachua strain, 4 h constant exposure
[9] = Alachua strain, 24 h constant exposure
[10] = Gilchrist strain, 2 h constant exposure
[11] = Gilchrist strain, 4 h constant exposure
[12] = Gilchrist strain, 24 h constant exposure

CC1(C)CCCC2=C1CC(C=O)CC2 (centres unmarked) [Cyclemone A, 2-naphthaldehyde, 1,2,3,4,5,6,7,8-octahydro-8,8-dimethyl]
attraction or repellence of honey bees (contact seconds per hour) [1]: do not attract or repel honey bees | mortality rate ([2]; Day 1 and Day 2): 99% | % mortality on various days following treatment ([2]; day 1): 96.25a % | % mortality on various days following treatment ([2]; day 2): 90.00a % | % mortality on various days following treatment ([2]; day 3): 80.00a % | % mortality on various days following treatment ([2]; day 5): 77.50ab % | % mortality on various days following treatment ([2]; day 7): 78.75a % | % mortality on various days following treatment ([2]; day 8): 63.75a % | % mortality on various days following treatment ([2]; day 14): 6.25ab % | % mortality ([3]; S. calcitrans, formulation on plywood panels at 1.67 mg cm^−2, mortality 24 h after): 100.00a % | LC50 ([4]; exposure period 2 hours): 180.23 μg cm^−2 | LC90 ([4]; exposure period 2 hours): 452.11 μg cm^−2 | LC50 ([4]; exposure period 4 hours): 172.56 μg cm^−2 | LC90 ([4]; exposure period 4 hours): 488.13 μg cm^−2 | LC50 ([4]; exposure period 24 hours): 136.19 μg cm^−2 | LC90 ([4]; exposure period 24 hours): 330.22 μg cm^−2 | % mortality on various days following treatment ([5]; day 1): 100.00a % | % mortality on various days following treatment ([5]; day 2): 97.50a % | % mortality on various days following treatment ([5]; day 3): 92.50a % | % mortality on various days following treatment ([5]; day 5): 75.00a % | % mortality on various days following treatment ([5]; day 8): 25.50ab % | % mortality on various days following treatment ([5]; day 14): 17.50a % | LC50 [6, 7]: 54.46 μg cm^−2 | LC90 [6, 7]: 74.41 μg cm^−2 | LC50 [6, 8]: 52.60 μg cm^−2 | LC90 [6, 8]: 69.96 μg cm^−2 | LC50 [6, 9]: 32.29 μg cm^−2 | LC90 [6, 9]: 51.09 μg cm^−2 | LC50 [6, 10]: 54.11 μg cm^−2 | LC90 [6, 10]: 72.60 μg cm^−2 | LC50 [6, 11]: 46.52 μg cm^−2 | LC90 [6, 11]: 79.28 μg cm^−2 | LC50 [6, 12]: 32.32 μg cm^−2 | LC90 [6, 12]: 51.58 μg cm^−2

C/C=C/C(=O)C1=C(C)CCCC1(C)C [Beta damascone, beta damascone]
attraction or repellence of honey bees (contact seconds per hour) [1]: do not attract or repel honey bees | mortality rate ([2]; in vivo): 99% | mortality rate ([3]; in vivo): 99-100% | LC90 ([4]; exposure period 2 hours): 910.52 μg cm^−2 | LC90 ([4]; exposure period 4 hours): 648.16 μg cm^−2 | LC90 ([4]; exposure period 24 hours): 534.26 μg cm^−2 | mortality rate ([5]; in vivo): above 90% | LC90 [6, 7]: 136.39 μg cm^−2 | LC90 [6, 8]: 124.69 μg cm^−2 | LC90 [6, 9]: 47.00 μg cm^−2 | LC90 [6, 10]: 126.00 μg cm^−2 | LC90 [6, 11]: 70.59 μg cm^−2 | LC90 [6, 12]: 56.21 μg cm^−2
